Experiments:
[1] = test system: RTV-1060 (patient sample 98-1060); test: Phenotypic susceptibility assay, RTV-1060; assay type: cell-based, HIV-1; settings: RTV-1060, patient-derived pool
Description: Transfections were performed using a calcium-phosphate precipitation procedure. […] Cell lysates were assayed for luciferase activity (FIG. 3).
The drug inhibition curves are shown in (FIG. 3).
This patient had been previously treated with d4T […] , indinavir (a PRI and efavirenz (an NNRTI). A second resistance test vector was constructed as described in Example 1 from a patient sample designated 98-1060. This patient had been previously treated with d4T […]. indinavir (a PRI) and efavirnez (an NNRTI). Isolation of viral RNA and RT/PCR was used to generate a patient derived segment that comprised viral sequences coding for all of PR and aa 1-313 of RT. The PDS was inserted into an indicator gene viral vector to generate resistance test vectors designated RTV-644 and RTV-1060. RTV-644 and RTV-1060 were then tested in a phenotypic assay to determine accurately and quantitatively the level of susceptibility to a panel of anti-retroviral drugs. […] An IC50 was determined for the resistance test vector pool for each drug tested. The pattern of susceptiblity to all of the drugs tested was examined and compared to known patterns of susceptibility.

V106A-V189L-RTV = test: Phenotypic susceptibility assay, V106A-V189L-RTV; assay type: cell-based, HIV-1; settings: site directed mutant
Source text: (§1) The resistance test vectors containing a functional luciferase gene cassette were constructed and host cells were transfected with the resistance test vector DNA. The resistant test vectors contained patient-derived reverse transcriptase and protease sequences that were either susceptible or resistant to the antiretroviral agents, such as nucleoside reverse transcriptase inhibitors, non-nucleoside reverse transcriptase inhibitors and protease inhibitors. The resistance test vector viral particles produced by transfecting the resistance test vector DNA into host cells, either in the presence or absence of protease inhibitors, were used to infect target host cells grown either in the absence of NRTI or NNRTI or in the presence of increasing concentrations of the drug. The amount of luciferase activity produced in infected target host cells in the presence of drug was compared to the amount of luciferase produced in infected target host cells in the absence of drug. Drug resistance was measured as the amount of drug required to inhibit by 50% the luciferase activity detected in the absence of drug (inhibitory concentration 50%, IC50). The IC50 values were determined by plotting percent drug inhibition vs. log10 drug concentration.
(§2) Host cells were seeded in 10-cm-diameter dishes and were transfected several days after plating with resistance test vector plasmid DNA and the envelope expression vector. Transfections were performed using a calcium-phosphate precipitation procedure. The cell culture media containing the DNA precipitate was replaced with fresh medium, from one to 24 hours, after transfection. Cell culture media containing resistance test vector viral particles was harvested one to four days after transfection and was passed through a […] filter before being stored at −80° C. HIV capsid protein (p24) levels in the harvested cell culture media were determined by an EIA method as described by the manufacturer (SIAC; Frederick, Md.). […] The inhibitory effect of the drug was determined using the following equation: […]

[2] = test system: V106A-RTV (HIV reverse transcriptase V106A); test: Phenotypic susceptibility assay, V106A-RTV; assay type: cell-based, HIV-1; settings: site directed mutant
Source text: as §1, §2

[3] = test system: F227L-RTV (HIV reverse transcriptase F227L); test: Phenotypic susceptibility assay, F227L-RTV; assay type: cell-based, HIV-1; settings: values <1 = increased susceptibility
Source text: as §1, §2

V106A-F227-RTV = test: Phenotypic susceptibility assay, V106A-F227-RTV; assay type: cell-based, HIV-1; settings: site directed mutant
Source text: as §1, §2

[4] = test system: V108I -RTV (HIV reverse transcriptase V108I)
Source text: as §1
as §2, with “Md.). Before infection, target cells (293 and 293/T) were plated in cell culture media. Control infections were performed using cell culture media from mock transfections (no DNA) or transfections containing the resistance test vector plasmid DNA without the envelope expression plasmid. One to three or more days after infection the media was removed and cell lysis buffer (Promega) was added to each well.” for “Md.).”
(§3) where RLUluc [drug] is the relative light unit of luciferase activity in infected cells in the presence of drug and RLUluc is the Relative Light Unit of luciferase activity in infected cells in the absence of drug. IC50 values were obtained from the sigmoidal curves that were generated from the data by plotting the percent inhibition of luciferase activity vs. the log10 drug concentration.

Y181C-A98G-RTV = test system: Y181C-A98G-RTV
Source text: as §1
as §2, with “Md.). Before infection, target cells (293 and 293/T) were plated in cell culture media. Control infections were performed using cell culture media from mock transfections (no DNA) or transfections containing the resistance test vector plasmid DNA without the envelope expression plasmid. One to three or more days after infection the media was removed and cell lysis buffer (Promega) was added to each well.” for “Md.).”
as §3

[5] = test system: Y188C-RTV (HIV reverse transcriptase Y188C)
Source text: as §1
as §2, with “Md.). Before infection, target cells (293 and 293/T) were plated in cell culture media. Control infections were performed using cell culture media from mock transfections (no DNA) or transfections containing the resistance test vector plasmid DNA without the envelope expression plasmid. One to three or more days after infection the media was removed and cell lysis buffer (Promega) was added to each well.” for “Md.).”
as §3

[6] = test system: A98G-RTV (HIV reverse transcriptase A98G)
Source text: as §1
as §2, with “Md.). Before infection, target cells (293 and 293/T) were plated in cell culture media. Control infections were performed using cell culture media from mock transfections (no DNA) or transfections containing the resistance test vector plasmid DNA without the envelope expression plasmid. One to three or more days after infection the media was removed and cell lysis buffer (Promega) was added to each well.” for “Md.).”
as §3

[7] = test system: Y181I-RTV (HIV reverse transcriptase Y181I)
Source text: as §1
as §2, with “Md.). Before infection, target cells (293 and 293/T) were plated in cell culture media. Control infections were performed using cell culture media from mock transfections (no DNA) or transfections containing the resistance test vector plasmid DNA without the envelope expression plasmid. One to three or more days after infection the media was removed and cell lysis buffer (Promega) was added to each well.” for “Md.).”
as §3

[8] = test system: L100I-RTV (HIV reverse transcriptase L100I); test: Phenotypic susceptibility assay, L100I-RTV; assay type: cell-based, HIV-1; settings: site directed mutant
Source text: as §1
Host cells were seeded in 10-cm-diameter dishes and were transfected several days after plating with resistance test vector plasmid DNA and the envelope expression vector. Transfections were performed using a calcium-phosphate precipitation procedure. […] HIV capsid protein (p24) levels in the harvested cell culture media were determined by an EIA method as described by the manufacturer (SIAC; Frederick, Md.). […] The inhibitory effect of the drug was determined using the following equation: […]
The mutations Y188L, L100I and K103N were introduced alone and in combinationn into resistance test vectors using the mega-primer method for site-directed mutagenesis (Sakar and Sommar, Ibid.). […] We determined the pattern of phenotypic susceptibility to the NNRTIs, delavirdine, nevlrapine and efavirenz, in all 6 vectors.

Row | Compound | fold decrease in susceptibility (IC50) [1] | fold loss of susceptibility compared to wild type control RTV (V106A-V189L-RTV) | fold loss of susceptibility compared to wild type control RTV [2] | fold change in susceptibility compared to wild type control RTV [3] | fold loss of susceptibility compared to wild type control RTV (V106A-F227-RTV) | fold change in susceptibility compared to wild type control RTV [4] | fold loss of susceptibility compared to wild type control RTV (Y181C-A98G-RTV) | fold loss of susceptibility compared to wild type control RTV [5] | fold loss of susceptibility compared to wild type control RTV [6] | fold loss of susceptibility compared to wild type control RTV [7] | fold loss of susceptibility compared to wild type control RTV [8]
1 | Cc1ccnc2c1NC(=O)c1cccnc1N2C1CC1 [nevirapine] | greater than 800 fold | 50 fold | 60 fold | 3 fold | greater than 800 fold | 3 fold | greater than 800 fold | 30 fold | 8 fold | 740 fold | 3 fold
2 | O=C1Nc2ccc(Cl)cc2[C@@](C#CC2CC2)(C(F)(F)F)O1 [efavirenz] | 900 fold | 1 fold | 1.7 fold | 0.48 fold | 8 fold | 1.7 fold | 7 fold | 20 fold | 3 fold | 1.4 fold | 10 fold
3 | CC(C)Nc1cccnc1N1CCN(C(=O)c2cc3cc(NS(C)(=O)=O)ccc3[nH]2)CC1 [delavirdine] | 1.5 fold | 3 fold | 5 fold | 0.03 fold | 3 fold | 1.3 fold | 240 fold | 3 fold | 3 fold | 20 fold | 30 fold

Source: patent publication US20020094522A1, “Means and methods for monitoring non-nucleoside reverse transcriptase inhibitor antiretroviral therapy and guiding therapeutic decisions in the treatment of HIV/AIDS” (priority 2000, published 2002)
